Measured values taken from the NIST ThermoML archive (doi:10.1021/acs.jced.7b00106).
Where “and” joins values, the source holds several entries; their conditions need not be identical. Identical values can stand only once. Numbers after ± are expanded uncertainties.

Conditions: Hot wire method

FC(F)(F)/C=C/Cl [(E)-1-chloro-3,3,3-trifluoroprop-1-ene]
Conditions | thermal conductivity
382.51 K, 10968 kPa, Liquid | 0.06711 ± 0.0013 W/m/K
382.51 K, 10976 kPa, Liquid | 0.0674 ± 0.0025 W/m/K
382.53 K, 24122 kPa, Liquid | 0.07474 ± 0.0025 W/m/K
382.54 K, 24143 kPa, Liquid | 0.07473 ± 0.0071 W/m/K
382.55 K, 1308 kPa, Liquid | 0.0594 ± 0.0013 W/m/K
382.56 K, 884 kPa, Fluid (supercritical or subcritical phases) | 0.01781 ± 0.0024 W/m/K and 0.01779 ± 0.0024 W/m/K
382.56 K, 1302 kPa, Liquid | 0.05937 ± 0.0012 W/m/K
382.56 K, 7890 kPa, Liquid | 0.06497 ± 0.002 W/m/K
382.56 K, 7897 kPa, Liquid | 0.06497 ± 0.001 W/m/K
382.56 K, 8382 kPa, Liquid | 0.06533 ± 0.0054 W/m/K
382.56 K, 8389 kPa, Liquid | 0.06536 ± 0.0047 W/m/K
382.58 K, 20086 kPa, Liquid | 0.07258 ± 0.0011 W/m/K
382.58 K, 20109 kPa, Liquid | 0.07262 ± 0.0016 W/m/K
382.6 K, 1196 kPa, Fluid (supercritical or subcritical phases) | 0.01858 ± 0.0032 W/m/K
382.61 K, 1196 kPa, Fluid (supercritical or subcritical phases) | 0.01858 ± 0.0032 W/m/K
382.62 K, 35572 kPa, Liquid | 0.07991 ± 0.0018 W/m/K
382.63 K, 6276 kPa, Liquid | 0.06372 ± 0.00084 W/m/K
382.63 K, 35594 kPa, Liquid | 0.08017 ± 0.0029 W/m/K
382.64 K, 727 kPa, Fluid (supercritical or subcritical phases) | 0.01771 ± 0.0015 W/m/K
382.64 K, 6276 kPa, Liquid | 0.06375 ± 0.00084 W/m/K
382.65 K, 16810 kPa, Liquid | 0.07072 ± 0.00099 W/m/K
382.65 K, 33011 kPa, Liquid | 0.079 ± 0.0025 W/m/K
382.66 K, 16821 kPa, Liquid | 0.07073 ± 0.0042 W/m/K
382.66 K, 33037 kPa, Liquid | 0.07905 ± 0.0011 W/m/K
382.7 K, 13733 kPa, Liquid | 0.0689 ± 0.0008 W/m/K
382.71 K, 13730 kPa, Liquid | 0.06888 ± 0.00081 W/m/K
382.71 K, 28321 kPa, Liquid | 0.07678 ± 0.0027 W/m/K
382.71 K, 28350 kPa, Liquid | 0.07685 ± 0.00091 W/m/K
382.72 K, 4298 kPa, Liquid | 0.06213 ± 0.0013 W/m/K
382.74 K, 4301 kPa, Liquid | 0.06214 ± 0.0013 W/m/K
382.77 K, 2602 kPa, Liquid | 0.06057 ± 0.0007 W/m/K
382.77 K, 2621 kPa, Liquid | 0.06066 ± 0.0014 W/m/K
382.77 K, 10954 kPa, Liquid | 0.06703 ± 0.0015 W/m/K
382.77 K, 24142 kPa, Liquid | 0.07452 ± 0.0011 W/m/K
382.78 K, 1001 kPa, Fluid (supercritical or subcritical phases) | 0.01826 ± 0.0046 W/m/K
382.78 K, 24124 kPa, Liquid | 0.07466 ± 0.0014 W/m/K
382.79 K, 1000 kPa, Fluid (supercritical or subcritical phases) | 0.0181 ± 0.0042 W/m/K
382.79 K, 10954 kPa, Liquid | 0.06707 ± 0.0015 W/m/K
382.81 K, 530 kPa, Fluid (supercritical or subcritical phases) | 0.01767 ± 0.00088 W/m/K
382.82 K, 7886 kPa, Liquid | 0.06511 ± 0.0016 W/m/K
382.83 K, 1306 kPa, Liquid | 0.05933 ± 0.00067 W/m/K
382.83 K, 8368 kPa, Liquid | 0.06524 ± 0.0012 W/m/K
382.83 K, 8383 kPa, Liquid | 0.06552 ± 0.0011 W/m/K
382.84 K, 1310 kPa, Liquid | 0.05941 ± 0.0008 W/m/K
382.84 K, 7894 kPa, Liquid | 0.06495 ± 0.00099 W/m/K
382.84 K, 20089 kPa, Liquid | 0.07256 ± 0.0016 W/m/K
382.85 K, 20100 kPa, Liquid | 0.07257 ± 0.0019 W/m/K
382.87 K, 883 kPa, Fluid (supercritical or subcritical phases) | 0.01794 ± 0.0024 W/m/K
382.87 K, 885 kPa, Fluid (supercritical or subcritical phases) | 0.01792 ± 0.0028 W/m/K
382.87 K, 35575 kPa, Liquid | 0.08013 ± 0.0029 W/m/K
382.87 K, 35578 kPa, Liquid | 0.08012 ± 0.0029 W/m/K
382.91 K, 1197 kPa, Fluid (supercritical or subcritical phases) | 0.01873 ± 0.0041 W/m/K
382.91 K, 6263 kPa, Liquid | 0.06365 ± 0.0026 W/m/K
382.91 K, 6280 kPa, Liquid | 0.06372 ± 0.0026 W/m/K
382.91 K, 33006 kPa, Liquid | 0.07896 ± 0.0014 W/m/K
382.91 K, 33028 kPa, Liquid | 0.07899 ± 0.0013 W/m/K
382.92 K, 16811 kPa, Liquid | 0.07071 ± 0.0012 W/m/K
382.92 K, 16817 kPa, Liquid | 0.0707 ± 0.0012 W/m/K
382.96 K, 28308 kPa, Liquid | 0.07685 ± 0.0012 W/m/K
382.97 K, 727 kPa, Fluid (supercritical or subcritical phases) | 0.01778 ± 0.0018 W/m/K
382.97 K, 28333 kPa, Liquid | 0.07679 ± 0.0011 W/m/K
382.98 K, 13709 kPa, Liquid | 0.06879 ± 0.0013 W/m/K
382.98 K, 13730 kPa, Liquid | 0.06887 ± 0.0013 W/m/K
383 K, 4290 kPa, Liquid | 0.06207 ± 0.00079 W/m/K
383.01 K, 4292 kPa, Liquid | 0.0621 ± 0.00084 W/m/K
383.03 K, 24102 kPa, Liquid | 0.07464 ± 0.00093 W/m/K
383.04 K, 24119 kPa, Liquid | 0.07466 ± 0.00093 W/m/K
383.05 K, 10954 kPa, Liquid | 0.06701 ± 0.00095 W/m/K
383.06 K, 2617 kPa, Liquid | 0.06075 ± 0.00083 W/m/K
383.06 K, 10970 kPa, Liquid | 0.06706 ± 0.00095 W/m/K
383.07 K, 2612 kPa, Liquid | 0.06066 ± 0.0012 W/m/K
383.08 K, 1001 kPa, Fluid (supercritical or subcritical phases) | 0.01823 ± 0.0013 W/m/K
383.08 K, 1002 kPa, Fluid (supercritical or subcritical phases) | 0.01821 ± 0.0014 W/m/K
